From patent US20180002692A1, “Sequence Specific and Organism Specific Antimicrobials and Related Materials and Methods” (priority 2015, published 2018)
Entries after “also recorded” stand apart in the source; their conditions may differ. Where two headings read alike, the source gives them in different places.

Assays:
[1] = system: ampicillin-resistant E. coli; type: cell-based
Procedure: Three biological replicates were selected from colonies and pretreated for 16 hr with respective α-TSS concentration in liquid media. After pretreatment, the cultures were diluted 1:100,000 into liquid media with respective concentration of ampicillin and α-TSS and allowed to grow with shaking at 37° C. for 24 hr. The final OD at 562 nm at 24 hr was used for data analysis.
Data fitting analysis was performed in Origin Pro 6.1. Data was fit to a sigmoidal/decay Boltzman function.
The degree of re-sensitization exerted by α-TSS in presence of varying concentrations of ampicillin above and below the MIC determined for α-TSS was then evaluated.

[2] = system: ampicillin-resistant E. coli; type: cell-based; remark: listed apart in the source
Procedure: pAKgfp1 plasmid was obtained from Addgene for TEM-1 β-lactamase resistance gene, bla (43). The plasmid was cloned into chemically competent Zymo DH5a E. coli (Expressys). Untransformed Zymo DH5a was used as a control strain for β-lactamase activity assays. Liquid cultures were grown in 2% LB, incubated at 37° C. and shaken at 225 rpm. Solid cultures were grown on 2% LB broth, 1.5% agar at 37° C. Ampicillin sodium salt (Sigma Aldrich) was used for selection at a concentration of 300 μg/mL for MIC and CFU analysis. Optical density measurements were taken using a Tecan GENios at 562 nm with a bandwidth of 35 nm. All bacterial freezer stocks were stored in 40% glycerol at −80° C.

[3] = system: ampicillin-resistant E. coli; experiment: Colony forming unit analysis with α-TSS and ampicillin; details: 1 μM α-TSS (below MIC), 300 μg/mL ampicillin
Procedure: Cultures were sampled at respective time points and serial dilutions were performed ranging from 10^2-10^10. For ampicillin sensitivity experiment, dilutions were plated on solid media and 300 μg/mL ampicillin sodium salt and grown at 37° C. for 24 hr followed by cell counting. For the other experiments, cultures were serially diluted into PBS and plated onto 2% agar and 1.5% agar. Plates were incubated for 16-24 h at 37° C. and counted for visible colonies.
Overnight cultures of ampicillin-resistant E. coli were pre-treated with different concentrations of α-TSS, followed by treatment with ampicillin.

[4] = system: bla mRNA; experiment: bla mRNA expression by qPCR; type: cell-based, E. coli; details: 5 μM α-TSS, 25 μM α-RBS, 25 μM α-YUNR; absence of ampicillin
Procedure: Three biological replicates were used for bla expression analysis. Cultures were pretreated overnight in respective PNA and liquid media in the absence of ampicillin and collected for RNA at 16 hr.
50 μL of the respective culture was added to 100 μL of Bacteria RNAprotect (Qiagen) and incubated at room temperature for 5 min. The cells were then pelleted via centrifugation for 3 min at 10,000 rpm, the supernatant removed, and samples were flash frozen in an ethanol dry ice bath and stored at −80° C. Precautions were taken to protect RNA from RNases using RNaseZap (Life Technologies). RNA was extracted from frozen cell pellets using GeneJET RNA purification kit (Thermo Scientific) and 350-600 ng was treated with Turbo DNA-free (Ambion). 50 ng cDNA was synthesized using Maxima Universal First Stand cDNA synthesis kit (Thermo Scientific). 1.5 ng of cDNA was used for qPCR with Maxima SYBR Green qPCR master mix with ROX normalization (Thermo Scientific) using Illumina Eco qPCR system. Transcript levels were analyzed using the ΔCq method with respect to moderately expressed housekeeping gene cysG (43). Transcript levels were further analyzed for the mutant populations using the ΔΔCq method with respect to the no treatment populations.

[5] = system: ampicillin-resistant E. coli; experiment: Emergence of tolerance to α-TSS/ampicillin combination; type: cell-based; details: 35 cultures
Procedure: Ampicillin-resistant cultures were pretreated overnight with 2.5 μM α-TSS and then subjected to selection pressure of 2.5 μM α-TSS and 300 μg/mL of ampicillin for 24 hours. […] Mutant populations 1 and 2 were diluted and re-grown under selection pressure for another 24 hours.
Changes in expression of a set of key stress response genes was examined to identify the resistance mechanism involved in obtaining resistance to α-TSS. Thirteen representative stress response genes were measured by qPCR (FIG. 5B).

[6] = system: MDR Salmonella typhimurium; experiment: Growth of clinical strain MDR S. typhimurium; type: cell-based; details: 10 μM
Procedure: (§1) MG1655 E. coli cultures were started from individual colonies from 2% LB and 1.5% agar into M9 media. They were diluted 1:10,000 from overnight culture into fresh M9 with respective treatment and grown at 37° C. with 225 rpm shaking. Clinical strains were started from individual colonies grown on cation adjusted Mueller Hinton Broth with 1.5% agar into liquid CAMHB. These were diluted 1:10,000 into CAMHB medium with respective treatment and grown at 37° C. with 225 rpm shaking. Optical density measurements were taking using a Tecan GENios at 562 nm with a bandwidth of 35 nm. Lag time was calculated using Growth Rates Made Easy (Hall et al. Mol. Biol. Evol. 31(1):232-238).
(§2) MDR E. coli was inhibited by four of the six oligomers tested (α-folC, α-ffh, α-lexA, and α-rpsD), extended-spectrum beta-lactamase (ESBL) K. pneumoniae was inhibited by two of the antisense oligomers (α-fnrS and α-rpsD), and New Delhi metallo-β-lactamase (NDM-1) K. pneumoniae was inhibited by one of the oligomers tested (α-rpsD) (FIGS. 15-16).

[7] = system: MDR E. coli; experiment: Growth of clinical strain MDR E. coli; type: cell-based; details: 10 μM
Procedure: as §1, §2

[8] = system: CRE E. coli; experiment: Growth of clinical strain CRE E. coli; type: cell-based, Escherichia coli; details: 10 μM
Procedure: as §1, §2

[9] = system: MG1655 E. coli; experiment: Growth (optical density, lag time) of MG1655; type: cell-based; details: 10 μM antisense inhibitor
Procedure: as §1, with “31(1):232-238). […]” for “31(1):232-238).”

[10] = system: MG1655 E. coli; experiment: Colony forming unit analysis of MG1655; type: cell-based; details: 10 μM, 2 hours; listed as A-rpsD
Source text: The effect of α-lexA, α-fnrS, and α-rpsD on cell viability using a colony forming unit analysis was then determine.

[11] = system: ESBL K. pneumoniae; experiment: Growth of clinical strain ESBL K. pneumoniae; type: cell-based, Klebsiella pneumoniae; details: 10 μM
Procedure: as §1, §2

[12] = system: NDM-1 K. pneumoniae; experiment: Growth of clinical strain NDM-1 K. pneumoniae; type: cell-based, Klebsiella pneumoniae; details: 10 μM
Procedure: as §1, §2

[13] = 0.5 μM α-TSS (below MIC), 24 hr

KFFKFFKFFK-O-tactcatactct (antisense TACTCATACTCT; PNA, O-linker to (KFF)3K peptide, chemistry not fully specified) [α-TSS, 12-mer antisense PNA to translation start site of bla mRNA, O-linker to (KFF)3K cell penetrating peptide]
slope of the transition from resistant to sensitive (Boltzman fit) ([1]; 0.5 μM α-TSS (below MIC)): −0.0038 ODmLμg^−1 | ampicillin concentration up to which growth is unhindered [1, 13]: 250 µg/mL | ampicillin concentration with no growth [1, 13]: 550 µg/mL | decrease in ampicillin MIC compared to the no treatment cultures ([1]; 5 μM α-TSS (above MIC)): greater than 20 fold | increase in negative slope compared to below MIC and no treatment ([1]; 5 μM α-TSS (above MIC)): Greater than two fold | slope of the transition from resistant to sensitive (Boltzman fit) ([1]; 5 μM α-TSS (above MIC)): −0.010 OD/μg/mL | lowest ampicillin concentration showing a decrease in growth ([1]; 5 μM α-TSS (above MIC), 24 hr): 25 µg/mL | shift in ampicillin sensitivity ([1]; α-TSS at 0.5 μM (below MIC) and 5 μM (above MIC)): leftward shift in ampicillin sensitivity | re-sensitization of drug resistant E. coli to ampicillin [2]: re-sensitized drug resistant E. coli to ampicillin; also recorded: re-sensitization of drug resistant E. coli to ampicillin; also recorded: re-sensitize | growth in absence of ampicillin (toxicity of antisense agent) ([2]; absence of ampicillin): non-toxic effect; also recorded: No inhibition | growth of drug-resistant E. coli in presence of ampicillin ([2]; antisense oligomer plus 300 μg/mL ampicillin): hindered cell growth; also recorded: impact growth; also recorded: significant antibiotic effect | minimum inhibitory concentration (MIC) ([2]; in presence of 300 μg/mL ampicillin, after overnight pretreatment with antisense agent): 2.5 µM | colony forming units over time [3]: increased with time | bla mRNA expression [4]: did not affect bla transcript levels; also recorded: did not significantly reduce bla expression | share of independent cultures showing emergence of tolerance ([5]; 2.5 μM α-TSS (MIC)/β-lactam): less than 5% | independent cultures showing emergence of tolerance ([5]; 5 μM α-TSS/ampicillin): None

KFFKFFKFFK-O-ttgccattttct (antisense TTGCCATTTTCT; all peptide nucleic acid (PNA); (KFF)3K cell-penetrating peptide joined to the N-terminus through an O-linker) [α-rpsD, 12-mer antisense PNA centered on start codon of rpsD, O-linker to (KFF)3K]
growth inhibition of MDR S. typhimurium [6]: inhibited | growth inhibition of MDR E. coli [7]: inhibited | growth inhibition of CRE E. coli [8]: completely prevented growth; also recorded: inhibited | lag time [9]: significantly increased lag time | growth of MG1655 E. coli cultures ([9]; 24 h): completely inhibited; also recorded: completely prevented cell growth; also recorded: Complete inhibition | colony forming units per milliliter after two hours of treatment [10]: zero | growth inhibition of ESBL K. pneumoniae [11]: inhibited | growth inhibition of NDM-1 K. pneumoniae [12]: inhibited
